Among the data in ChEMBL document CHEMBL3507680, “University of Dundee, Gates Library screen for HepG2 cell viability” are cytotoxicity values, retold here.

This data set is described as follows: Human HepG2 cell viability assay in 384 well format. The data set is classed as toxicity, cell-based. Details: dose 125 nL, time 70.5 hour; cytotoxicity at 70.5 h: concentration not given beside the values. Particulars: HepG2 cells, read-out: Inhibition.
Take `CC1CS(=O)(=O)CCN1CCCc1ccc(C(F)(F)F)cc1` (configuration not stated): the cytotoxicity at 70.5 h was -10.6%.
As for `CS(=O)(=O)Cc1ccc(CNC(=O)c2cccnc2O)cc1`, the figure is 9.83%; as for `CCN(CC)Cc1ccc(CNC(=O)C(C)(C)n2cc(Br)cn2)cc1`, 15.4%; as for `CC(C)[C@H]1CN(CCCO)C[C@@H]1NC(=O)CCC(F)(F)F`, -7.33%.
Consider `Cc1nc(C2(NCc3cc(C#N)ccc3F)CCCCC2)no1`, for which the cytotoxicity at 70.5 h was -17.2%.
In the case of `O=C(CNC(=O)Nc1cccc(-c2nccs2)c1)NCCO`, the cytotoxicity at 70.5 h was -2.39%.
Take `Cc1csc(N2CCCN(c3cc(C)nc(C)c3C#N)CC2)n1`: the cytotoxicity at 70.5 h is -4%.
As for `CCCNC(=O)C[S+]([O-])Cc1csc(C2CCCCC2)n1` (configuration not stated), the cytotoxicity at 70.5 h was -10.9%.
Turning to `CCCn1ccnc1CN1C[C@@H](NC(C)=O)[C@H](c2ccc(OC)cc2)C1`, the cytotoxicity at 70.5 h is 15.8%.
Turning to `CN(C)c1nc(NCCc2ccccn2)ncc1F`, the cytotoxicity at 70.5 h was determined as 25.5%.
Take `Cc1cc(NC(=O)CCN(CC2CCOC2)C2CC2)no1` (configuration not stated): the cytotoxicity at 70.5 h was -9.35%.
In the case of `CCC(C)NC(=O)NCCCn1nc2ccccn2c1=O` (configuration not stated) it was -9.52%.
Consider `Cc1cnn(CC2CCCCN2C(=O)c2csc(C)n2)c1` (configuration not stated), for which the cytotoxicity at 70.5 h was -3.43%.
In the case of `Cc1ccc2oc(=O)n(CCC(=O)N3CCC4(CN(C)C(=O)O4)C3)c2c1` (configuration not stated), the cytotoxicity at 70.5 h was -1.59%.
In the case of `N#Cc1ncn(CCC(=O)Nc2ccc(F)c(F)c2)n1`, the cytotoxicity at 70.5 h was -9.3%.
With `Cn1cc(CN2CCCC3(COCCN(Cc4c[nH]nn4)C3)C2)cn1` (configuration not stated), the cytotoxicity at 70.5 h worked out at 0.634%.
As for `CCCc1noc(C2CC(=O)N(Cc3ccccc3)C2)n1` (configuration not stated), the figure is -8.97%.
In the case of `Cn1cc(C(=O)NCC2CCN(C(=O)NC3CC3)CC2)cn1` it was -19.1%.
In the case of `NCCc1nc(N(Cc2cncs2)C2CC2)c2ccccc2n1` it was 24.1%; in that of `Cc1ccc2nc(C(=O)N3CC(n4nc(C)cc4C)C3)cn2c1`, -9.46%; in that of `Cc1cccc2nc(C(=O)N3CCC4(CCC(=O)N(C)C4)CC3)c(F)n12`, -11.3%.
Consider `CCOC(=O)N1CCN(c2nc(C)ncc2CC)CC1`, for which the cytotoxicity at 70.5 h stood at 1.02%.
In the case of `O=C(CCn1cccn1)N1CCSCC1` it was -4.39%; in that of `CN(Cc1cnccn1)C(=O)c1ccnc(OC2CCC2)c1`, -9.6%; in that of `CN1CCOC(CNC(=O)COc2ccc(F)cc2F)C1` (configuration not stated), 0.568%.
Take `COCCCN1CCCC2(CCN(S(=O)(=O)c3cccnc3)C2)C1=O` (configuration not stated): the cytotoxicity at 70.5 h came to 9.1%.
For `COCCN(Cc1cccs1)C(=O)c1ccc(=O)n(C)c1`, the cytotoxicity at 70.5 h is -10.2%.
Consider `O=C(Nc1cccc(CNCc2ccccn2)c1)C1CCCC1`, for which the cytotoxicity at 70.5 h is -4.03%.
On to `CC(NC(N)=O)C(=O)NCc1ccc(Br)c(F)c1` (configuration not stated), for which the cytotoxicity at 70.5 h amounted to 0.261%.
In the case of `O=S(=O)(CCO)Cc1ccc(OCC(F)(F)F)cc1`, the cytotoxicity at 70.5 h was -9.29%.
As for `Cc1cccc(CN2CCN(C(=O)c3cc(C4CC4)[nH]n3)CC2)c1`, the figure is -4.75%.
As for `Cc1cnn(CC2CCCCN2C(=O)c2ccc3[nH]nnc3c2)c1` (configuration not stated), the figure is -11.6%; as for `COc1ccccc1C1(CNc2cn[nH]c(=O)c2Cl)CCOCC1`, -13.8%; as for `Cc1cc(CN2CCOCS2(=O)=O)ccc1F`, -7.79%.
For the molecule `CCC(C)(C)NC(=O)c1scnc1Cl`, the cytotoxicity at 70.5 h came out at 12.7%.
As for `COC(C(=O)NC1CC1)c1ccccc1` (configuration not stated), the figure is 28.7%.
Consider `CN(CC1Cc2ccccc2CN1C)C(=O)CSc1ccccn1` (configuration not stated), for which the cytotoxicity at 70.5 h is -15.7%.
As to `CN(Cc1nc(CC2CC2)no1)CC1COc2ccccc2O1` (configuration not stated), the cytotoxicity at 70.5 h was -3.03%.
In the case of `N#Cc1ccccc1N1CCN(C(=O)NCCN2CCOCC2)CC1`, the cytotoxicity at 70.5 h was 0.377%.
In the case of `COCCN1CC[C@@H]2O[C@@H](COCC(=O)N3CCCC3)CC[C@@H]21`, the cytotoxicity at 70.5 h is -3.26%.
On to `CCCc1nc2c(c(C)c(C)n2Cc2cccnc2)c(N)c1CC`, for which the cytotoxicity at 70.5 h was 54.7%.
With `CNC(=O)c1cc2c(nc1N(C)C)CCN(S(=O)(=O)C1CC1)CC2`, the cytotoxicity at 70.5 h amounted to 20.2%.
With `O=C1CCC2(CCCN(C(=O)c3ccoc3)C2)CN1CCc1c[nH]cn1` (configuration not stated), the cytotoxicity at 70.5 h was -4.81%.
`CN(C)C(CNC(=O)NCCc1cccc(O)c1)c1ccco1` (configuration not stated): the cytotoxicity at 70.5 h is -5.87%.
As to `Cc1ccc(NC2CCN(C(=O)c3ccc(Cl)o3)CC2)nn1`, the cytotoxicity at 70.5 h came out at 34.4%.
As for `Cc1ccsc1CNC1CCCc2c1cnn2C` (configuration not stated), the figure is -2.66%; as for `Cc1nn(C)c2nc(NC(C)c3nnn[nH]3)sc12` (configuration not stated), 11.9%; as for `Cc1cccc(CN2CCc3nnc(CN(C)C)n3CC2)n1`, -10.7%.
`CC1=Nc2c(c(=O)[nH]n2C2CCCC2)C(c2ccc(O)cc2)S1` (configuration not stated): the cytotoxicity at 70.5 h was -22.9%.
Turning to `CC(C)NC(=O)c1cccc(NC(=O)CCCc2nc(C(C)C)no2)c1`, the cytotoxicity at 70.5 h amounted to 5.5%.
Consider `CCc1nc(C(=O)N(CC)CC(=O)N(C)C)nn1-c1ccccc1Cl`, for which the cytotoxicity at 70.5 h was -2.5%.
As for `COCC1CCCN(c2cncc(OCc3ccccc3)n2)C1` (configuration not stated), the cytotoxicity at 70.5 h worked out at 6.39%.
In the case of `COCCN1CCC2(CC1)CN(C(=O)N(C)C)c1ccc(C)cc12`, the cytotoxicity at 70.5 h amounted to 3.45%.
For the molecule `O=C(Cc1ccc(-c2ccccc2)cc1)N1CCOCC(O)C1` (configuration not stated), the cytotoxicity at 70.5 h is -9.74%.
Consider `CC(=O)N1CCCC1c1cc(N2CCN(CC3CC3)CC2)cc(C)n1` (configuration not stated), for which the cytotoxicity at 70.5 h was -1.76%.
For `Cc1c(C(C)NC2CCOCC2)cnn1-c1ccc(F)cc1F` (configuration not stated), the cytotoxicity at 70.5 h was 9.85%.
In the case of `CC(C)(C)CC(=O)NS(=O)(=O)c1ccc(C#N)cc1C(F)(F)F` it was 13.5%; in that of `O=C(C1CC1)N1CCc2c(ncnc2NCCc2nc3c(s2)CCC3)C1`, 13.5%; in that of `CCN(c1ccc(C(=O)N(Cc2cnn(C)c2)C(C)C)cn1)C(C)C`, -24.7%.
`Cc1ccc(C(=O)NC2CCN(Cc3noc(C(C)(C)C)n3)CC2)s1`: the cytotoxicity at 70.5 h was -14.3%.
For the molecule `CCc1nc2n(n1)CC(NCC(=O)Nc1oc(C)c(C)c1C#N)CC2` (configuration not stated), the cytotoxicity at 70.5 h was 7.08%.
With `CC(C)c1cc(N2CCC3(CC2)CN(C)CCN3C)ncn1`, the cytotoxicity at 70.5 h was -4.93%.
`O=c1cc(C2CCNCC2)nc(Cc2cccc(Cl)c2)[nH]1`: the cytotoxicity at 70.5 h is -5.11%.
As for `COCCn1ccc2cc(NC(=O)COC)ccc21`, the cytotoxicity at 70.5 h was -3.46%.
On to `CCO[C@H]1CN(CC2CC2)[C@@H]2CCCO[C@H]12`, for which the cytotoxicity at 70.5 h was determined as 1.44%.
In the case of `COC(=O)c1cc(OC)c(OC)cc1NCc1c(C)noc1C`, the cytotoxicity at 70.5 h was -2.42%.
With `CCC(O)Cn1cc(C2=CCN(Cc3cc(O)nc(C)n3)CC2)cn1` (configuration not stated), the cytotoxicity at 70.5 h was 10.8%.
On to `CCCN1CCC(N(C)C(=O)c2cc(C)nc3cc(F)ccc23)CC1`, for which the cytotoxicity at 70.5 h was -11.9%.
In the case of `CCc1ccc(C(=O)N2CC[C@](C)(O)C(C)(C)C2)[nH]1`, the cytotoxicity at 70.5 h was -3.24%.
In the case of `CNC(=O)NCC1CCC2(CCN(c3ncccn3)CC2)CO1` (configuration not stated), the cytotoxicity at 70.5 h was -3.53%.
In the case of `COc1ccc(CC(=O)N2CC[C@H](CO)[C@H](O)C2)c(OC)c1`, the cytotoxicity at 70.5 h was -7.77%.
Consider `CCNc1cc2c(nn1)CCN(C(=O)c1cc3nc(C)ccc3o1)C2`, for which the cytotoxicity at 70.5 h came out at 22.7%.
